In patent US4469848A, “Deodorant product for surface treatment” (priority 1978, dated 1984):

Columns and labels:
[1] = Morpholine test: depression of partial vapour pressure of morpholine relative to Raoult's Law (headspace GC); conditions: material 1 g + morpholine 0.25 g, 37° C., 30 minutes
lipoxidase (ECl.13.1.13) = target: T1, lipoxidase (ECl.13.1.13) (Glycine max, UniProt P08170); test: Lipoxidase test: inhibition of lipoxidase-catalysed oxidation of linoleic acid to hydroperoxide (234 nm); type: biochemical; conditions: 0.5% by weight solution of material in ethanol as test substrate solvent; pH 9.0 borate buffer
T1 sequence (P08170 1-839): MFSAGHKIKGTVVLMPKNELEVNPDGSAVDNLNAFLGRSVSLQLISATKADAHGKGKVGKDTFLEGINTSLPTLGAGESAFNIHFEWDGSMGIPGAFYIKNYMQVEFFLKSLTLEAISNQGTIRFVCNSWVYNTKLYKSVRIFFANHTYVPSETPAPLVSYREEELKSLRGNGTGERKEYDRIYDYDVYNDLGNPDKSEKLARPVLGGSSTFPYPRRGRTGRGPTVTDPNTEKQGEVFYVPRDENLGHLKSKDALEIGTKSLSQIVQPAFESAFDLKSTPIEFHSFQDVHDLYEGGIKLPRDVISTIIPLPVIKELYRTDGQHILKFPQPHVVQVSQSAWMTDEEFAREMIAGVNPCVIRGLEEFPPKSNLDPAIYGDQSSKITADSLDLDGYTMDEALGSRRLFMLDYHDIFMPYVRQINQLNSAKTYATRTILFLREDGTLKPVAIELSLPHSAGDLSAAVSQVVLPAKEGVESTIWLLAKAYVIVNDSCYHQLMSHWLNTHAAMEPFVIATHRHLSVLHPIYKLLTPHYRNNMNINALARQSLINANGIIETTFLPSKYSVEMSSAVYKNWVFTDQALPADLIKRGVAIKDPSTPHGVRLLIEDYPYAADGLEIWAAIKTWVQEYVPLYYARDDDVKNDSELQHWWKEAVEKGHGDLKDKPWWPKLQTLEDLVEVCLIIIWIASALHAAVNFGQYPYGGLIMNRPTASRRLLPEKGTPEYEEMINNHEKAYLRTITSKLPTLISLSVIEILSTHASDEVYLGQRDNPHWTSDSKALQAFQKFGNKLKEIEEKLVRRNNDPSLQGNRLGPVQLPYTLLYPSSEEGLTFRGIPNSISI

Compound | Raoult variance ratio (RVR) [1] | lipoxidase inhibiting capacity (LIC), % inhibition (lipoxidase (ECl.13.1.13)) [%]
CCCCCCCC1CCCC1=O (stereo not drawn) [2-n-heptylcyclopentanone] | 1.05 | 
CC1(C)CCCC2(C)C1CCC1(C)OCCC12 (stereo not drawn) [3a-Methyl-dodecahydro-6,6,9a-trimethylnaphtho(2,1-b)furan] | 1.30 | 
O=C(OCc1ccccc1)c1ccccc1O [Benzyl salicylate] | 1.58 | 
Cc1ccc(C(C)C)cc1O [Carvacrol] | 1.43 | 
O=c1ccc2ccccc2o1 [Coumarin] | 1.22 | 
CCOC(=O)c1ccccc1C(=O)OCC [Diethyl phthalate] | 1.20 | 
CCOc1cc(C=O)ccc1O [Ethyl vanillin] | 1.43 | 
CCCCCCC(CCOC(C)=O)OC(C)=O (stereo not drawn) [Nonanediol-1,3-diacetate] | 1.17 | 
CCCCCC1CCC(=O)O1 (stereo not drawn) [Nonanolide-1:4] | 0.87 | 
OCCc1ccccc1 [Phenylether alcohol] | 1.24 | 
CC(C)CCOC(=O)c1ccccc1O [iso-Amyl salicylate] | 1.24 | 
C/C=C\c1ccc(O)c(OC)c1 [iso-Eugenol] | 1.48 | 
CC(=O)OC1CCCCC1C(C)(C)C (stereo not drawn) [o-t-Butylcyclohexyl acetate] | 1.08 | 
CCC(C)(C)C1CCC(=O)CC1 [p-t-Amyl cyclohexanone] | 1.10 | 
CC(=O)OC1CCC(C(C)(C)C)CC1 (stereo not drawn) [p-t-Butylcyclohexyl acetate] | 0.98 | 
CC(=O)c1ccc2ccccc2c1 [β-Methyl naphthyl ketone] | 0.96 | 
Dimyrcetol | 1.22 | 16
Tetrahydromuguol | 1.23 | 24
i-Nonyl acetate | 0.83 | 50
i-Nonyl formate | 1.49 | 19
